Laboratory results reported in patent publication US7709492B2, “Pyrazolo-[4,3-e]-1,2,4-triazolo-[1,5-c]-pyrimidine adenosine A2a receptor antagonists” (Schering Corporation, priority 2004, dated 2010).

Target: T1, Human A2a Adenosine Receptor (Homo sapiens, UniProt P29274)
T1 construct: purchased Receptor Biology, Inc., Beltsville, Md; RB-HA2a
Assay: Human adenosine A2a receptor competition binding assay
Conditions: [3H]-SCH 58261 displacement, human A2a membranes
Procedure: Human Adenosine A2a and A1 Receptor Competition Binding Assay Protocol
A2a: Human A2a Adenosine Receptor membranes, Catalog #RB-HA2a, Receptor Biology, Inc., Beltsville, Md. Dilute to 17 μg/100 μl in membrane dilution buffer (see below).
Membrane dilution buffer: Dulbecco's Phosphate Buffered Saline (Gibco/BRL)+10 mM MgCl2.
Compound Dilution Buffer: Dulbecco's Phosphate Buffered Saline (Gibco/BRL)+10 mM MgCl2 supplemented with 1.6 mg/ml methyl cellulose and 16% DMSO. Prepared fresh daily.
A2a: [3H]-SCH 58261, custom synthesis, AmershamPharmacia Biotech, Piscataway, N.J. Stock is prepared at 1 nM in membrane dilution buffer. Final assay concentration is 0.5 nM.
A2a: To determine non-specific binding, add 100 nM CGS 15923 (RBI, Natick, Mass.). Working stock is prepared at 400 nM in compound dilution buffer.
Prepare 1 mM stock solutions of compounds in 100% DMSO. Dilute in compound dilution buffer. Test at 10 concentrations ranging from 3 μM to 30 pM. Prepare working solutions at 4× final concentration in compound dilution buffer.
Perform assays in deep well 96 well plates. Total assay volume is 200 μl. Add 50 μl compound dilution buffer (total ligand binding) or 50 μl CGS 15923 working solution (A2a non-specific binding) or 50 μl, NECA working solution (A1 non-specific binding) or 50 μl of drug working solution. Add 50 μl ligand stock ([3H]-SCH 58261 for A2a, [3H]-DPCPX for A1). […]

T1 sequence (P29274 whole entry): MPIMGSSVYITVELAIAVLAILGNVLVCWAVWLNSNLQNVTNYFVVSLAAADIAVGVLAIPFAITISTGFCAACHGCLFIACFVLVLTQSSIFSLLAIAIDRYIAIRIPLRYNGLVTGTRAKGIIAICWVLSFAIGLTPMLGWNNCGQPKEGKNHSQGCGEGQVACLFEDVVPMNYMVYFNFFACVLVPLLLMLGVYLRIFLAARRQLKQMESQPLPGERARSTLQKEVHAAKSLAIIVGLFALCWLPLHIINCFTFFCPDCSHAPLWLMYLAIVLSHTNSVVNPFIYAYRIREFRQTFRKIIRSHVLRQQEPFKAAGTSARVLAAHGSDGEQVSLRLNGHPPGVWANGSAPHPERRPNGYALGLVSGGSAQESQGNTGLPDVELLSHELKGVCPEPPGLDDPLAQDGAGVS

## Nc1nc2c(cnn2CCN2CCN(c3cc(-c4ncco4)ccc3F)CC2)c2nc(-c3ccccn3)nn12 [Example 12-31]
  Ki: 0.3 nM
